Active and inactive are the calls of the source. Rule as the data show it, for most assays here: actives have a measured Kd and inactives only a lower limit. Where only a bound is given, the exact number is not on record here.

Assay [1] concerns the target T1, Mitogen-activated protein kinase kinase kinase 2 (Homo sapiens, UniProt Q9Y2U5).
T1 sequence (Q9Y2U5 whole entry): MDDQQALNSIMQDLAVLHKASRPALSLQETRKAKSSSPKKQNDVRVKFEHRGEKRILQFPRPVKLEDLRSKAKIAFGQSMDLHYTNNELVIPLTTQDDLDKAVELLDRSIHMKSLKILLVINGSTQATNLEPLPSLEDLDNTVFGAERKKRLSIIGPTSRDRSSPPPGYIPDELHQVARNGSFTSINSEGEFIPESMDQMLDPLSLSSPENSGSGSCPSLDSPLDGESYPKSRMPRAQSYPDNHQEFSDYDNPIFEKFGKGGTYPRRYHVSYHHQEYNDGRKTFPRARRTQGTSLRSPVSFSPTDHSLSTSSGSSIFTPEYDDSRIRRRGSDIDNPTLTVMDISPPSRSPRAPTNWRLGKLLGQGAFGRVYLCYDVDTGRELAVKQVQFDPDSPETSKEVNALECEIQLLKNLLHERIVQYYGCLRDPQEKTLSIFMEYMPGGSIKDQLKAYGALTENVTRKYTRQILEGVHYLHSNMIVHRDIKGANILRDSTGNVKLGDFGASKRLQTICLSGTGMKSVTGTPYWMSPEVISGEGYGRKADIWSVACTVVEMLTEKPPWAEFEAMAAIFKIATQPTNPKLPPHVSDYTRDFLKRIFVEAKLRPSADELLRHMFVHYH

For assay [2], the target named is T2, Dual specificity mitogen-activated protein kinase kinase 3 (Homo sapiens, UniProt P46734).
T2 sequence (P46734 whole entry): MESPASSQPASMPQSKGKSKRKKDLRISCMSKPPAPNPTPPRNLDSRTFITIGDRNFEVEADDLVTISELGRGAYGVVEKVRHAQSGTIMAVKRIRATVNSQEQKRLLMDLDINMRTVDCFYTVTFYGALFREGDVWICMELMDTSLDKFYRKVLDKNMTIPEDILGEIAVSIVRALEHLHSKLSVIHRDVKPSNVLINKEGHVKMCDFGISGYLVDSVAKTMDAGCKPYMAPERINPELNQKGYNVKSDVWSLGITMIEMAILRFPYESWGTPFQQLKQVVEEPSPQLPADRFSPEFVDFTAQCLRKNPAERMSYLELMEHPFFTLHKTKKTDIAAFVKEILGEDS

In another assay the target is LIM domain kinase 1 (Homo sapiens, UniProt P53667).
Sequence of LIM domain kinase 1 (P53667 whole entry, the tested form may be a part): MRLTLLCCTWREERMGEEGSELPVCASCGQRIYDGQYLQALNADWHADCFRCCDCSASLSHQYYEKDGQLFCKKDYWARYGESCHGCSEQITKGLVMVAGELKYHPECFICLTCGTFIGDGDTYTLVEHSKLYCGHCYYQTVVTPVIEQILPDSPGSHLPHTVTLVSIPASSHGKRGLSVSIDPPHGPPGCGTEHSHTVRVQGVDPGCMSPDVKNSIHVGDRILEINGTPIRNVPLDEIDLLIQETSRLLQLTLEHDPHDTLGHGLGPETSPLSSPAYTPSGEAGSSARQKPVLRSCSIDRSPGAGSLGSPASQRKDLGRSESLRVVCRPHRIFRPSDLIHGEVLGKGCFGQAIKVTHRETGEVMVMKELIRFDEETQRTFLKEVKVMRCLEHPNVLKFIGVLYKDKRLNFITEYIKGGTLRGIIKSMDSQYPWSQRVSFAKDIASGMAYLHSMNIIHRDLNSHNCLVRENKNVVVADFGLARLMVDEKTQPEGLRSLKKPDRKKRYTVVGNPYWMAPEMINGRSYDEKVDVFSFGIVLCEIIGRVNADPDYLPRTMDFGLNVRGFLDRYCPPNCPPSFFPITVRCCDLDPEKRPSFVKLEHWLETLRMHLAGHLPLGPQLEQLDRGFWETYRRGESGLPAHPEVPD
For assay [3], the target named is Tyrosine-protein kinase Lck (Homo sapiens, UniProt P06239).
Sequence of Tyrosine-protein kinase Lck (P06239 whole entry): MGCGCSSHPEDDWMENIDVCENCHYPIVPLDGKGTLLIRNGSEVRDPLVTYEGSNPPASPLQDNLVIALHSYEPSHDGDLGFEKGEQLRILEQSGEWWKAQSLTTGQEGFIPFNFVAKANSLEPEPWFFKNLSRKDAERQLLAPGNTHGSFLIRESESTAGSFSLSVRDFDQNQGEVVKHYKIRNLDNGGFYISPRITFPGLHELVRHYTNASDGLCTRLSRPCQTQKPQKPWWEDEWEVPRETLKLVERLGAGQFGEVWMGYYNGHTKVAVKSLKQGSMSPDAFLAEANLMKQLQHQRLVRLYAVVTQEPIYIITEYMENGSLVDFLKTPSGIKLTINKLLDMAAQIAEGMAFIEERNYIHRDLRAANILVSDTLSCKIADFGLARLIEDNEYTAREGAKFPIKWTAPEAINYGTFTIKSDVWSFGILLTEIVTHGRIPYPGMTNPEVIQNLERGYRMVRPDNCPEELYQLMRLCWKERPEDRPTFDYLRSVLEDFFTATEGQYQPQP
Assay [4] addresses Citron Rho-interacting kinase (Homo sapiens, UniProt O14578).
Assay [5] deals with T3, Serine/threonine-protein kinase A-Raf (Homo sapiens, UniProt P10398).
T3 sequence (P10398 whole entry): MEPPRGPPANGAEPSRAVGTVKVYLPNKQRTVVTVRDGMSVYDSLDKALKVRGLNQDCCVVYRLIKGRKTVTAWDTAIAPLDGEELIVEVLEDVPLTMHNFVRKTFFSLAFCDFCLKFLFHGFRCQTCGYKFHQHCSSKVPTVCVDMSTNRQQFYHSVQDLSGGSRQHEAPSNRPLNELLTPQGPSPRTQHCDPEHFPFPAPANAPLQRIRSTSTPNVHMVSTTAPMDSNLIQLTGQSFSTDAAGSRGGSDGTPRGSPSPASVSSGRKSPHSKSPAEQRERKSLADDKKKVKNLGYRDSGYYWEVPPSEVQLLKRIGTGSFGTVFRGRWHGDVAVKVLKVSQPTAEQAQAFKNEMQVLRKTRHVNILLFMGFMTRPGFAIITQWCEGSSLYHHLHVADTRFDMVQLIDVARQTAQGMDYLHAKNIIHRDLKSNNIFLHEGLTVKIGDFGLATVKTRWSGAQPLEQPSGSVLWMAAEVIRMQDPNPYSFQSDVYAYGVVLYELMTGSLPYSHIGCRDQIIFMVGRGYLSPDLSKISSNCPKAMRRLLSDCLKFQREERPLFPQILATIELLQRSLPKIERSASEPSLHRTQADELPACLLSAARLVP

Assay [6] deals with Serine/threonine-protein kinase 10 (Homo sapiens, UniProt O94804).
Sequence of Serine/threonine-protein kinase 10 (O94804 whole entry): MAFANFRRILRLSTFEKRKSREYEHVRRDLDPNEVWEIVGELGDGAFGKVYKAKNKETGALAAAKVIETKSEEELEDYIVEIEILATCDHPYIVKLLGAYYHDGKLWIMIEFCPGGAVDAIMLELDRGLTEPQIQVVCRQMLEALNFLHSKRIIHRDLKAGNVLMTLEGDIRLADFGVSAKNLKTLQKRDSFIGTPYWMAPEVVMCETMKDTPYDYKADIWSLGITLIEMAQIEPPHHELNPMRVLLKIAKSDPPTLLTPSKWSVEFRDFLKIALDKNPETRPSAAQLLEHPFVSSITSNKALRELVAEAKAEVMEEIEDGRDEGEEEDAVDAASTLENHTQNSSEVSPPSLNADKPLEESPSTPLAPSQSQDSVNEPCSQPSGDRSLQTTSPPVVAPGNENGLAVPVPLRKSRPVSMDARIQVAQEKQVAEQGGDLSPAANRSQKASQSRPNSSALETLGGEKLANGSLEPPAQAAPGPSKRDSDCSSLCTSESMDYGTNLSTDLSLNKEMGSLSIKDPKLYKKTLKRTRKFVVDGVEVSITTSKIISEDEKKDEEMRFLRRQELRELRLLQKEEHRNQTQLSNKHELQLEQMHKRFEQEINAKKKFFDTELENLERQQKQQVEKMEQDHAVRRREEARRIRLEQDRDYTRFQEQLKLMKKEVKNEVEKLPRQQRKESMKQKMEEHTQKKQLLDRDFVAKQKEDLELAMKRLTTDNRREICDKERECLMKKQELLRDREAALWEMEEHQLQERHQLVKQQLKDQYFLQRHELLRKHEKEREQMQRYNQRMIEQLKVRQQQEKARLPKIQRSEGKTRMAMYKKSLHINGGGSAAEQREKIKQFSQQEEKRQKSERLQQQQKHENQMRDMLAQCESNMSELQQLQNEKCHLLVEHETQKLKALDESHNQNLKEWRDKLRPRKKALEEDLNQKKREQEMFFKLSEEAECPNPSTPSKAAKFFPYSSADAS
Assay [7] has as its target T4, Interleukin-1 receptor-associated kinase 4 (Homo sapiens, UniProt Q9NWZ3).
T4 sequence (Q9NWZ3 whole entry): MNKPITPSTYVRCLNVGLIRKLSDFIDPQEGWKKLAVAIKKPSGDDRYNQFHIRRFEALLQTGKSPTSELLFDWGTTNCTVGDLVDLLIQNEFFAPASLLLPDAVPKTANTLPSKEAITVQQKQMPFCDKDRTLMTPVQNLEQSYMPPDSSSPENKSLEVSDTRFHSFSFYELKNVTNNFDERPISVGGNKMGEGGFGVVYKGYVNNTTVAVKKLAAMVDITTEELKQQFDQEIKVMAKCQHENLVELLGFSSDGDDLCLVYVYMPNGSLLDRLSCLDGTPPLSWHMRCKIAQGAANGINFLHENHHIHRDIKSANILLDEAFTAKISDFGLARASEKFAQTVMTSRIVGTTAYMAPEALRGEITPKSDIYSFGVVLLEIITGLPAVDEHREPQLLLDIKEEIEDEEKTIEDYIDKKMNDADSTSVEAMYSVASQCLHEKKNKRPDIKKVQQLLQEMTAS
Also: in the data inactive means no Kd found up to 30 µM.

Sequence of Citron Rho-interacting kinase (O14578 whole entry): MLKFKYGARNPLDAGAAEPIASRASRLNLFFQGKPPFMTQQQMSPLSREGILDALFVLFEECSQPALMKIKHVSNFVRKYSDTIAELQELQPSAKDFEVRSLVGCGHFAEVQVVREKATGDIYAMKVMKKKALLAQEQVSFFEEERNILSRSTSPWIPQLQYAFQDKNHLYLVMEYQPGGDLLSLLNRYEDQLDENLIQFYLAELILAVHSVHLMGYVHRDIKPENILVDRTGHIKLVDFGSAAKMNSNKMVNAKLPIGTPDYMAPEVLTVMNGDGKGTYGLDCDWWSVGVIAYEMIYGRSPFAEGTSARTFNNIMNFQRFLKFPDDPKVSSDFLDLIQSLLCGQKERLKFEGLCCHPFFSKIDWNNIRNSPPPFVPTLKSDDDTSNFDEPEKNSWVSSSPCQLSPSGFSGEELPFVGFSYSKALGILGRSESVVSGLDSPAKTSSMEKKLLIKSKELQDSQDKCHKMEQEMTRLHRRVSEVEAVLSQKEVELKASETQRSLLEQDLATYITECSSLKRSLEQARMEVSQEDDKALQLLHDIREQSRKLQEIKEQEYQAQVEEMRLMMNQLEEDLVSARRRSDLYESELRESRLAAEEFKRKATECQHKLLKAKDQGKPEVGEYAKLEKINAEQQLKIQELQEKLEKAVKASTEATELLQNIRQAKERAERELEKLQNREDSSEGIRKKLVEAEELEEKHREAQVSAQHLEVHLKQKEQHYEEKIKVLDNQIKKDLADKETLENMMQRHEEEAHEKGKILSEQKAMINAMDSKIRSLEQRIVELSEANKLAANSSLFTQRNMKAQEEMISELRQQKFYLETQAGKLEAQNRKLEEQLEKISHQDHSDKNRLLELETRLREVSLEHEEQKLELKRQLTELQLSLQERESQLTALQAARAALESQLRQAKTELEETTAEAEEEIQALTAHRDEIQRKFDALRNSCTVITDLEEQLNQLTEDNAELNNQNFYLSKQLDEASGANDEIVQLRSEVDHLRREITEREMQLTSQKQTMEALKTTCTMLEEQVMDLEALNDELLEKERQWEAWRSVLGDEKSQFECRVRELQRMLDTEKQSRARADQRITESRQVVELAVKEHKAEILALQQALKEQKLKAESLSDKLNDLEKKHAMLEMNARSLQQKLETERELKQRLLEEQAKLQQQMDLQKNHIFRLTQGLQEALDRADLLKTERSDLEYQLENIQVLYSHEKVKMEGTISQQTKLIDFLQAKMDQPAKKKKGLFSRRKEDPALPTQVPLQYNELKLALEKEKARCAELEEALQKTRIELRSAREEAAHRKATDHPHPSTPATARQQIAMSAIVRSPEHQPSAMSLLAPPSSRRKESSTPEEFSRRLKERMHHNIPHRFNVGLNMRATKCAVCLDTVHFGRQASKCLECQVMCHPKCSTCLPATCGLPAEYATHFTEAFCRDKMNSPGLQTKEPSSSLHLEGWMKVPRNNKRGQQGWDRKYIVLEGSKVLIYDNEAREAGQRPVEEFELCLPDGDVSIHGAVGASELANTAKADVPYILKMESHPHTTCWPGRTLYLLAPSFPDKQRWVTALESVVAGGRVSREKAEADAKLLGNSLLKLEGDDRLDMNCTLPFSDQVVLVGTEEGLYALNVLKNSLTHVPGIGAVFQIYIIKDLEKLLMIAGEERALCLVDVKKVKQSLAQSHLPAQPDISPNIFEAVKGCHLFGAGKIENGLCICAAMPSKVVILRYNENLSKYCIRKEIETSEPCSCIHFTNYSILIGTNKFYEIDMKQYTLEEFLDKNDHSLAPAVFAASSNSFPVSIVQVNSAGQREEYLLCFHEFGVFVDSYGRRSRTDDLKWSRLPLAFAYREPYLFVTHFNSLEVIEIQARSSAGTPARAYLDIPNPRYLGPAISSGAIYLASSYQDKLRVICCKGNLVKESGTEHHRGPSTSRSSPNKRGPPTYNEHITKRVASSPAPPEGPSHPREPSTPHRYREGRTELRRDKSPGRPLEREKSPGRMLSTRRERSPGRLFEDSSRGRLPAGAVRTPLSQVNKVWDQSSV

As a reminder, the Kd is the equilibrium constant for the complex coming apart. For the compound `CO[C@H]1C[C@@H]2CC[C@@H](C)[C@@](O)(O2)C(=O)C(=O)N2CCCC[C@H]2C(=O)O[C@H]([C@H](C)C[C@@H]2CC[C@@H](OP(C)(C)=O)[C@H](OC)C2)CC(=O)[C@H](C)/C=C(\C)[C@@H](O)[C@@H](OC)C(=O)[C@H](C)C[C@H](C)/C=C/C=C/C=C/1C` [RIDAFOROLIMUS], the Kd (in assay [1]; in assay [2]; on LIM domain kinase 1; in assay [3]; in assay [4]; in assay [5]) was > 30 µM (inactive) throughout. Also, the Kd in assay [6] and in assay [7] was > 30 µM (inactive) in each case.
`N#CC1(c2ccc(NC(=O)c3cccnc3NCc3ccncc3)cc2)CCCC1` [RIVOCERANIB]: the Kd (in assay [1]; in assay [2]; at LIM domain kinase 1; in assay [3]; in assay [4]; in assay [5]) was > 30 µM (inactive) throughout. Moreover, the Kd in assay [6] and in assay [7] was > 30 µM (inactive) each time.
With `O=c1[nH]ccc2cc(OC3CCNCC3)ccc12` [SAR-407899 FREE BASE], the Kd (in assay [1]; in assay [2]; at LIM domain kinase 1; in assay [3]; in assay [4]; in assay [5]) was > 30 µM (inactive) each time. Moreover, the Kd in assay [6] and in assay [7] was > 30 µM (inactive) in each case.
Turning to `Cn1cc(-c2cnn3c(N)c(Br)c([C@@H]4CCCNC4)nc23)cn1` [SCH-900776], the Kd (in assay [1]; in assay [2]; at LIM domain kinase 1; in assay [3]; in assay [4]; in assay [5]) was > 30 µM (inactive) throughout. For the same compound, the results for the Kd in assay [6] and in assay [7] were 4.39 µM (active) and 4.01 µM, respectively.
Regarding `CO[C@H]1C[C@@H]2CC[C@@H](C)[C@@](O)(O2)C(=O)C(=O)N2CCCC[C@H]2C(=O)O[C@H]([C@H](C)C[C@@H]2CC[C@@H](O)[C@H](OC)C2)CC(=O)[C@H](C)/C=C(\C)[C@@H](O)[C@@H](OC)C(=O)[C@H](C)C[C@H](C)/C=C/C=C/C=C/1C` [SIROLIMUS], the Kd (in assay [1]; in assay [2]; at LIM domain kinase 1; in assay [3]; in assay [4]; in assay [5]) was > 30 µM (inactive) each time. For the same compound, the Kd in assay [6] and in assay [7] was > 30 µM (inactive) each time.
As for `CCS(=O)(=O)c1cccc(-c2cc(C(=O)NC3CCN(C)CC3)c(C)c3[nH]c4ncc(C)cc4c23)c1` [TAK-901], the Kd in assay [1] was > 30 µM (inactive); in assay [2], > 30 µM (inactive); at LIM domain kinase 1, > 30 µM (inactive); in assay [3] it was 0.105 µM (active); in assay [4] it was > 30 µM (inactive); in assay [5], > 30 µM (inactive). Besides, the results for the dissociation constant Kd in assay [6] and in assay [7] were 0.949 µM (active) and 2.13 µM (active), respectively.
As to `CO[C@H]1C[C@@H]2CC[C@@H](C)[C@@](O)(O2)C(=O)C(=O)N2CCCC[C@H]2C(=O)O[C@H]([C@H](C)C[C@@H]2CC[C@@H](OC(=O)C(C)(CO)CO)[C@H](OC)C2)CC(=O)[C@H](C)/C=C(\C)[C@@H](O)[C@@H](OC)C(=O)[C@H](C)C[C@H](C)/C=C/C=C/C=C/1C` [TEMSIROLIMUS], the Kd (in assay [1]; in assay [2]; at LIM domain kinase 1; in assay [3]; in assay [4]; in assay [5]) was > 30 µM (inactive) in each case. Also, the Kd in assay [6] and in assay [7] was > 30 µM (inactive) each time.
With `COc1cc2c(Nc3ccc(Cl)c(Cl)c3F)ncnc2cc1OC[C@@H]1C[C@@H]2CN(C)C[C@@H]2C1` [TESEVATINIB], the Kd was > 30 µM (inactive) in assay [1]; > 30 µM (inactive) in assay [2]; > 30 µM (inactive) at LIM domain kinase 1; 0.207 µM (active) in assay [3]; > 30 µM (inactive) in assay [4]; > 30 µM (inactive) in assay [5]. Moreover, the Kd is 1.91 µM (active) in assay [6] and 1.17 µM (active) in assay [7].
Take `O=C(Cc1ccc(-c2ccc(OCCN3CCOCC3)cc2)cn1)NCc1ccccc1` [TIRBANIBULIN]: the Kd (in assay [1]; in assay [2]; on LIM domain kinase 1; in assay [3]; in assay [4]; in assay [5]) was > 30 µM (inactive) throughout. The Kd in assay [6] and in assay [7] was > 30 µM (inactive) throughout.
Regarding `O=C1NC(=O)[C@@H](c2cn3c4c(cccc24)CCC3)[C@@H]1c1c[nH]c2ccccc12` [TIVANTINIB], the Kd (in assay [1]; in assay [2]; on LIM domain kinase 1; in assay [3]; in assay [4]; in assay [5]) was > 30 µM (inactive) throughout. The Kd in assay [6] and in assay [7] was > 30 µM (inactive) throughout.
On to `C[C@@H](NC(=O)c1ncnc(N)c1Cl)c1ncc(C(=O)Nc2cc(C(F)(F)F)c(Cl)cn2)s1` [TOVORAFENIB], for which the Kd in assay [1] is > 30 µM (inactive); in assay [2], > 30 µM (inactive); on LIM domain kinase 1, 1.02 µM (active); in assay [3], > 30 µM (inactive); in assay [4], > 30 µM (inactive); in assay [5], > 30 µM (inactive). Moreover, the Kd in assay [6] and in assay [7] was > 30 µM (inactive) in each case.
In the case of `Cc1cc(Nc2ncnc3ccc(NC4=NC(C)(C)CO4)cc23)ccc1Oc1ccn2ncnc2c1` [TUCATINIB], the Kd (in assay [1]; in assay [2]; on LIM domain kinase 1; in assay [3]; in assay [4]; in assay [5]) was > 30 µM (inactive) each time. The Kd in assay [6] and in assay [7] was > 30 µM (inactive) throughout.
Take `Cn1ncc(Cl)c1-c1cc(C(=O)N[C@H](CN)Cc2ccc(F)c(F)c2)oc1Cl` [UPROSERTIB]: the Kd (in assay [1]; in assay [2]; at LIM domain kinase 1; in assay [3]; in assay [4]; in assay [5]) was > 30 µM (inactive) throughout. Further, the Kd in assay [6] and in assay [7] was > 30 µM (inactive) throughout.

Source of the values: ChEMBL document CHEMBL3991601, “The target landscape of clinical kinase drugs” (Science, 2017).
